Experimental data published in paper PMC10979003, “Development and crystal structures of a potent second-generation dual degrader of BCL-2 and BCL-xL” (Nature Communications, 2024).

What was measured:
BCL-xL = target: T1, BCL-xL (Homo sapiens, UniProt Q07817); assay: Immunoblot degradation of BCL-xL in Jurkat cells; assay type: cell-based; details: for DC50: 16 h treatment, immunoblot
T1 construct: endogenous in cells; host or cells: Jurkat (ATCC TIB-152)
Experimental: (§1) The data are presented as mean ± s.d. from three replicate cell cultures in a representative experiment for Jurkat cells. h Left, WH244 induces polyubiquitination of WT, K22R BCL-2 and to some extent K17R but not K17/22R BCL-2 in 293T cells. 293T cells were co-transfected as indicated with Flag-BCL−2 WT or mutants and HA-tagged ubiquitin (HA-Ub) plasmids. After 36 h, cells were pretreated with MG132 (10 µM) for 2 h and then treated with or without WH244 (1 μM) for 5 h. The Flag-tagged proteins were immunoprecipitated (IP) and immunoblotted with HA or Flag antibody. Right, The input blot for this assay. Data are a representative of two independent experiments. Source data are provided as Source Data file.
(§2) Cells were collected, washed once with ice-cold phosphate-buffered saline, pH 7.2 (PBS, cat. no. 20012027; Thermo Fisher Scientific) and lysed in RIPA lysis buffer (Cat. No. BP-115DG, Boston Bio Products, Ashland, MA, USA) supplemented with protease and phosphatase inhibitor cocktails (Cat. No. PPC1010, Sigma-Aldrich, St. Louis, MO, USA) through sonication. The samples were centrifuged at 15,000 × g for 5 min and the supernatants were transferred into a new tube. The protein concentration in the supernatants was determined using the Pierce BCA protein Assay kit (cat. no. 23225, Thermo Fisher Scientific). The protein concentration was normalized, and the samples were reduced in 4× Laemmli’s SDS-sample buffer (cat. no. BP-110R, Boston Bio Products) and denatured at 95 °C for 5 min. An equal amount of protein samples (20–40 μg per lane) were resolved using precast 4–20% Tris-glycine gels (Mini-PROTEAN TGX, cat. no. 456–1094, Bio-Rad), and resolved proteins were transferred onto 0.2-μm pore size polyvinylidene difluoride (PVDF) blotting membranes (cat. no. LC2002, Thermo Fisher Scientific) using mini trans-blot electrophoretic transfer cell (Bio-Rad). The membranes were blocked with non-fat dry milk (5% wt/vol) in 1×Tris- buffered saline-Tween-20 (TBST) for 1 h at room temperature, and were subsequently probed with primary antibodies at a pre-determined optimal concentration in non-fat dry milk (5% wt/vol in TBST) overnight at 4 °C. The membranes were washed three times (15 min each) in TBST and then incubated with horse radish peroxidase (HRP)-conjugated secondary antibodies for 1 h at room temperature. Following sufficient washing with TBST, the membranes were exposed with ECL Western Blotting Substrate (Bio-Rad), and the signal was detected using the ChemiDoc MP Imaging System (Bio-Rad) and quantified using the ImageJ (v1.53a) software from NIH. Antibodies were purchased from Cell Signaling Technologies (CST) and the dilutions are as follows: BCL-xL (Cat. No. 2762S, 1:1000) and BCL-2 (Cat. No. 2870S, 1:1000). β-actin antibody was purchased from MP Biomedicals (Cat. No. 8691001, 1:20,000).

BCL-2 = target: T2, BCL-2 (Homo sapiens, UniProt P10415); assay: Immunoblot degradation of BCL-2 in Jurkat cells; assay type: cell-based; details: for DC50: 16 h treatment, immunoblot
T2 construct: endogenous in cells; host or cells: Jurkat (ATCC TIB-152)
Experimental: as §1, §2

HeLa cells = assay: DIA proteomics in HeLa cells; assay type: cell-based, human; details: for Off-target effects (two proteomic analyses): TMT (Jurkat) and DIA (HeLa) proteomics
From the text: Given the somewhat inconclusive nature of the TMT results, we made additional efforts to characterize the on-target and off-target effects of our BCL-xL and BCL-2 dual PROTACs using a different proteomics analysis technique, i.e. the Data-Independent Acquisition (DIA) proteomics approach. This approach can avoid the limitation of TMT-labeling deficiency for some proteins/peptides. Specifically, we conducted DIA proteomics profiling using HeLa cells because these cells are primarily dependent on MCL-1 for survival and thus resistant to apoptosis after BCL-xL and BCL-2 degradation. To our delight, we were able to identify over 7200 proteins, including both BCL-xL and BCL-2 (Supplementary Fig. 10d), using this method.
Cells were lysed in buffer containing 5% SDS/50 mM triethylammonium bicarbonate (TEAB) in the presence of protease and phosphatase inhibitors (Halt; Thermo Scientific) and nuclease (Pierce™ Universal Nuclease for Cell Lysis; Thermo Scientific). Aliquots corresponding to 100 µg protein (EZQ™ Protein Quantitation Kit; Thermo Scientific) were reduced with tris(2-carboxyethyl)phosphine hydrochloride (TCEP), alkylated in the dark with iodoacetamide and applied to S-Traps (mini; Protifi) for tryptic digestion (sequencing grade; Promega) in 50 mM triethylammonium bicarbonate (TEAB). Peptides were eluted from the S-Traps with 0.2% formic acid in 50% aqueous acetonitrile and quantified using Pierce™ Quantitative Fluorometric Peptide Assay (Thermo Scientific). Data-independent acquisition mass spectrometry (DIA-MS) was conducted on a Thermo Scientific Orbitrap Exploris 480 mass spectrometer. […] A pool was made of the three control (DMSO) samples, and 2-µg peptide aliquots were analyzed using gas-phase fractionation and 4-m/z windows (30k resolution for precursor and product ion scans) to create an empirically-corrected DIA chromatogram library[72] by searching against a Prosit-generated predicted spectral library[73] based on the UniProt_Human_ref 9606_20220216 protein sequence database (20,588 sequences; 11,394,277 residues). […]

[1] = 0.1 μM WH244 for 16 h, then fresh medium, Jurkat cells

T2 sequence (P10415 whole entry): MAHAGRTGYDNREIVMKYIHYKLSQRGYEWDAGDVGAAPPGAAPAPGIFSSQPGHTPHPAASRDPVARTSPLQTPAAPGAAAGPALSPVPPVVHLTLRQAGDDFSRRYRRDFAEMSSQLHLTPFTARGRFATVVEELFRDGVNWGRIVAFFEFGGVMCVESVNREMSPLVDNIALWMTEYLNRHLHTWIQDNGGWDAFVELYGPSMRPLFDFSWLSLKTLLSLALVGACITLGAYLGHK
T1 sequence (Q07817 whole entry): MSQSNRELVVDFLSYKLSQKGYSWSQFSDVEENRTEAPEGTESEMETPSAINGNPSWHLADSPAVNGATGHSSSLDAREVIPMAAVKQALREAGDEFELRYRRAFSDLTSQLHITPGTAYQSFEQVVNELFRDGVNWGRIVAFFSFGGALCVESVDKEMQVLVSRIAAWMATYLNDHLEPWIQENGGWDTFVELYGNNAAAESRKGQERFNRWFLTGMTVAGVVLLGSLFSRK

Compound | DC50 (BCL-xL; Jurkat cells) [nM] | DC50 (BCL-2; Jurkat cells) [nM] | Off-target effects (two proteomic analyses) (HeLa cells) | Earliest time at which BCL-xL degradation is seen (BCL-xL; 0.1 μM WH244, Jurkat cells) [h] | Time to nearly complete degradation of BCL-xL (BCL-xL; 0.1 μM WH244, Jurkat cells) [h] | Time for BCL-xL level to recover to pretreatment level after removal of degrader (BCL-xL; [1]) [h] | DC50 fold better than 753b (BCL-xL) (BCL-xL; Jurkat cells, 16 h) | Earliest time at which BCL-2 degradation is seen (BCL-2; 0.1 μM WH244, Jurkat cells) [h] | Time to nearly complete degradation of BCL-2 (BCL-2; 0.1 μM WH244, Jurkat cells) [h] | Time for BCL-2 level to recover to pretreatment level after removal of degrader (BCL-2; [1]) [h] | DC50 fold better than 753b (BCL-2) (BCL-2; Jurkat cells, 16 h) [fold] | Degradation of BCL-xL and BCL-2 by DIA proteomics (comparison) (HeLa cells; HeLa cells)
Cc1ncsc1-c1ccc(C(C)NC(=O)C2CC(O)CN2C(=O)C(NC(=O)CCCCCCC(=O)N2CCN(CC3(C)CCC(c4ccc(Cl)cc4)=C(CN4CCN(c5ccc(C(=O)NS(=O)(=O)c6ccc(NC(CCN7CCOCC7)CSc7ccccc7)c(S(=O)(=O)C(F)(F)F)c6)cc5)CC4)C3)CC2)C(C)(C)C)cc1 (stereo not drawn) [753b] | 3.7 | 50 | limited off-target effects | – | – | – | – | – | – | – | – | –
Cc1ncsc1-c1ccc([C@H](C)NC(=O)[C@@H]2C[C@@H](O)CN2C(=O)[C@@H](NC(=O)CN2CCN(CC(=O)N3CCN(C[C@]4(C)CCC(c5ccc(Cl)cc5)=C(CN5CCN(c6ccc(C(=O)NS(=O)(=O)c7ccc(N[C@H](CCN8C[C@@H]9C[C@H]8CO9)CSc8ccccc8)c(S(=O)(=O)C(F)(F)F)c7)cc6)CC5)C4)CC3)CC2)C(C)(C)C)cc1 [WH244] | 0.6 | 7.4 | limited off-target effects | 1 | 4 | 24 to 48 | ~ 6.2 fold | 1 | 6 | 24 to 48 | ~6.8 | superior efficacy in the degradation of both proteins
